Results: article PMC8910560, “Screening of Novel Bioactive Peptides from Goat Casein: In Silico to In Vitro Validation” (International Journal of Molecular Sciences, 2022)
Read-outs that look alike come from different tables or passages of the source. Ends that are not written are not given here.

Experiments:
ACE = details: cited from earlier work
[1] = target: T1, angiotensin-I converting enzyme (ACE) (Oryctolagus cuniculus, UniProt P12822); assay: ACE inhibitory activity (iACE), fluorometric assay; type: biochemical
T1 construct: purchased Sigma-Aldrich
T1 sequence (P12822 34-1310): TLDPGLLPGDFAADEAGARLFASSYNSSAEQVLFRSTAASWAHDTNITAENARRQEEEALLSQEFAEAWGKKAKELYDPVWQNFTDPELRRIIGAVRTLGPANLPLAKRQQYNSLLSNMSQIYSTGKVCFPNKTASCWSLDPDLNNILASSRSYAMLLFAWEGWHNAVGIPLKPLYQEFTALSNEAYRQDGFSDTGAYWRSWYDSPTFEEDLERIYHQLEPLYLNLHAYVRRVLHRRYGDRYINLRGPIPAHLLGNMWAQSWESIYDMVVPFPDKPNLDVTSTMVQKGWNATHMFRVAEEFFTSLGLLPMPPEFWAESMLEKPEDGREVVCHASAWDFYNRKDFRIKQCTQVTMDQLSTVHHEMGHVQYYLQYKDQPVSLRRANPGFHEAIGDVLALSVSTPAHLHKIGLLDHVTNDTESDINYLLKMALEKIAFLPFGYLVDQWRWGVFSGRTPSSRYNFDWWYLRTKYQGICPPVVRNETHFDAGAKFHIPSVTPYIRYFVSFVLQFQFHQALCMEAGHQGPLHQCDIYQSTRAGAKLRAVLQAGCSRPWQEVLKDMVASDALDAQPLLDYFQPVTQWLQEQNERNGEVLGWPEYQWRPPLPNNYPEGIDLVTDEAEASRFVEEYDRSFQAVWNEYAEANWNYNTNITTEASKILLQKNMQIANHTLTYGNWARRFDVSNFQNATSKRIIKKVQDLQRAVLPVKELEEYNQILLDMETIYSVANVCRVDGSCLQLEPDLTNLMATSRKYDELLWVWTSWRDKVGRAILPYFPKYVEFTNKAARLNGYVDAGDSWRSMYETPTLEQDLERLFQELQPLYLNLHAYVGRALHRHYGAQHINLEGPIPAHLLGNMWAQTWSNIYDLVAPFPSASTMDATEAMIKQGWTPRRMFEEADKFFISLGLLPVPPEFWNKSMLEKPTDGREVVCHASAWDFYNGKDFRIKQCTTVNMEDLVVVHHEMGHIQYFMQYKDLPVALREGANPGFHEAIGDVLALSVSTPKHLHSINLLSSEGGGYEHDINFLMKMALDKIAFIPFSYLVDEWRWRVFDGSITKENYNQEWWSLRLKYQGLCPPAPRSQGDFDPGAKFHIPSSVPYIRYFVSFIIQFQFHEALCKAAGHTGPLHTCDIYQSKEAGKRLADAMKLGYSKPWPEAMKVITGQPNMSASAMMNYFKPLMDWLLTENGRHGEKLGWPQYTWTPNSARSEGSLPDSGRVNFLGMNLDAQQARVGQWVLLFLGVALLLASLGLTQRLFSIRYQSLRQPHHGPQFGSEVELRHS
Procedure: The ACE inhibitory activity was carried out using the fluorometric assay described by Coscueta, Brassesco, and Pintado (2021). The iACE of each sample (raw peptide and digested) was evaluated in duplicate and expressed as the concentration capable of inhibiting 50% of the enzymatic activity (IC50). To calculate the IC50 values, non-linear modeling was used, and the results were expressed as μg mL^−1 to inhibit 50% of the enzymatic activity.
Simulated gastrointestinal digestion was performed according to the method described by Madureira et al. (2011). Briefly, mouth digestion was mimicked by introducing the peptide sequence (2.5 mg/mL) into 15 mL of a 1 mM CaCl2 solution of 100 U mL^−1 α-amylase, under constant stirring (200 rpm) for 2 min at 37 °C, simulating masticatory movements. A 1 M NaHCO3 solution was used to adjust the pH of artificial saliva to 6.9. Subsequently, a pepsin solution, 25 mg/mL, was added with a ratio of 0.05 mL/mL of a sample at pH 2.0 (simulated gastric solution, stomach) following incubation for 2 h, 37 °C at 130 rpm orbital agitation for the gastric phase. Finally, intestinal digestion and absorption were simulated by adjusting pH values to […] using a 1 M NaHCO3 solution and adding a solution of bile salts and pancreatin to the digest.

[2] = design: method as in Contreras et al. (2013) [21]; details: ref Contreras et al. (2013) [21], cited from earlier work
[3] = whey-derived peptides, ref Tavares et al. (2011) [14]
[4] = antihypertensive oligopeptides encoded in various β-caseins
[5] = antihypertensive oligopeptides encoded in human β-casein
[6] = Digested (simulated gastrointestinal digestion, 50 µg mL^−1 in intestinal compartment)

## DAQSAPLRVY
ACE; [3]
  IC50 (ACE): 12.2 µg/mL

## FAQTQSLVYP [antihypertensive oligopeptide encoded in various β-caseins]
ACE; [4]
  IC50 (ACE): 28.8 µg/mL

## MHQPPQPL [MHQPPQPL]
[1]; Raw peptide, mean ± SD
  IC50: > 3170 µM

## VLPIP
ACE; [5]
  IC50 (ACE): 16.7 µg/mL

## YQKFPQY [casein-derived peptide studied by Contreras et al. (2013)]
[2]; after the digestion process
  change of antioxidant activity: reduced

## PAVVLP
ACE; [5]
  IC50 (ACE): 26.8 µg/mL

## HPFAQTQQSLVYP [antihypertensive oligopeptide encoded in various β-caseins]
ACE; [4]
  IC50 (ACE): 36.1 µg/mL

## SLVYP
ACE; [4]
  IC50 (ACE): 23.7 µg/mL

## TVYTKGRVMP [antihypertensive oligopeptide encoded in the human β-casein]
ACE; [5]
  IC50 (ACE): 43.7 µg/mL

## DKVGINYW
ACE; [3]
  IC50 (ACE): 25.4 µg/mL

## PHQIYP
ACE; [5]
  IC50 (ACE): 22.6 µg/mL

## SWMHQPP [SWMHQPP]
[1]; [6]
  IC50: > 56.7 µM
[1]; Raw peptide, mean ± SD
  IC50: 253 µM

## NPPHQIYP [antihypertensive oligopeptide encoded in the human β-casein]
ACE; [5]
  IC50 (ACE): 35.7 µg/mL

## RYLGY
[2]; after the digestion process
  change of antioxidant activity: reduced

## AYFYPEL [casein-derived peptide studied by Contreras et al. (2013)]
[2]; after the digestion process
  antioxidant capacity: 4.160 ± 0.623 µmol TE µmol^−1 peptide
[2]; before digestion
  antioxidant capacity: 3.216 ± 0.114 µmol TE µmol^−1 peptide

## VMP
ACE; [5]
  IC50 (ACE): 10.0 µg/mL

## YPYQGPIVL [YPYQGPIVL]
[1]; [6]
  IC50: > 47.7 µM
[1]; Raw peptide, mean ± SD
  IC50: 1060 µM

## LPQNILP [antihypertensive oligopeptide encoded in the human β-casein]
ACE; [5]
  IC50 (ACE): 36.5 µg/mL

## KGYGGVSLPEW
ACE; [3]
  IC50 (ACE): 0.7 µg/mL

## VLPYP
ACE; [5]
  IC50 (ACE): 21.1 µg/mL

## HQPPQPL [HQPPQPL]
[1]; Raw peptide, mean ± SD
  IC50: > 3680 µM

## QSLVYPFTGPIPNSL [QSLVYPFTGPIPNSL]
[1]; [6]
  IC50: > 30.6 µM
[1]; Raw peptide, mean ± SD
  IC50: > 1840 µM
